Reference: publication PMC10746543, “Design principles for cyclin K molecular glue degraders” (Nature Chemical Biology, 2023)
“And” between values parts separate entries of the source, which are not always exact repeats. Equal entries are not always repeated. Where two headings read alike, the source gives them in different places.

Experiments:
CDK12–cyclin K and DDB1 = molecular target: T1, CDK12–cyclin K and DDB1 (Homo sapiens, UniProt Q16531+Q9NYV4, K965R); test: TR-FRET ternary complex formation assay (compound titration); type: binding
T1 construct: His6–CDK12 (a.a. 713–1,052); full-length or beta-propeller B domain deletion (ΔBPB: a.a. 396–705 deleted) constructs of His6–DDB1ΔBPB, StrepII–Avi–DDB1, or His6–Spy–DDB1; made in house; host or cells: Trichoplusia ni High Five insect cells (baculovirus)
T1 sequence (Q9NYV4 713-1052 K965R): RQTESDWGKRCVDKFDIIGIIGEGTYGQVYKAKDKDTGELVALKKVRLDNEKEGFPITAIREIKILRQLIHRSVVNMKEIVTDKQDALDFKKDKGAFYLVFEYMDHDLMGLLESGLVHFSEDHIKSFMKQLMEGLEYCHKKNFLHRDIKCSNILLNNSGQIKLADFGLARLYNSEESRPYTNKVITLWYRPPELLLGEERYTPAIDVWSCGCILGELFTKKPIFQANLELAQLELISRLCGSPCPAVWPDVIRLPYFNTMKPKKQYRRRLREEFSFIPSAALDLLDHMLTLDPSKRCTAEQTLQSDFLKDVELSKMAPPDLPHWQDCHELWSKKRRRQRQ
T1 sequence (O75909 1-267 partner): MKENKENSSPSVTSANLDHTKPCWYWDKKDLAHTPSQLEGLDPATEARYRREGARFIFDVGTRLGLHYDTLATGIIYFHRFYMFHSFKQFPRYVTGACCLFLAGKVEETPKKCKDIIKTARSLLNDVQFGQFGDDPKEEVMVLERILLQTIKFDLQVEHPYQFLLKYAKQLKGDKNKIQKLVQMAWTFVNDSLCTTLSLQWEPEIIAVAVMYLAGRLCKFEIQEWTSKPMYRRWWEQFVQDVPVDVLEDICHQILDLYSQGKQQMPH
T1 sequence (Q16531 whole entry): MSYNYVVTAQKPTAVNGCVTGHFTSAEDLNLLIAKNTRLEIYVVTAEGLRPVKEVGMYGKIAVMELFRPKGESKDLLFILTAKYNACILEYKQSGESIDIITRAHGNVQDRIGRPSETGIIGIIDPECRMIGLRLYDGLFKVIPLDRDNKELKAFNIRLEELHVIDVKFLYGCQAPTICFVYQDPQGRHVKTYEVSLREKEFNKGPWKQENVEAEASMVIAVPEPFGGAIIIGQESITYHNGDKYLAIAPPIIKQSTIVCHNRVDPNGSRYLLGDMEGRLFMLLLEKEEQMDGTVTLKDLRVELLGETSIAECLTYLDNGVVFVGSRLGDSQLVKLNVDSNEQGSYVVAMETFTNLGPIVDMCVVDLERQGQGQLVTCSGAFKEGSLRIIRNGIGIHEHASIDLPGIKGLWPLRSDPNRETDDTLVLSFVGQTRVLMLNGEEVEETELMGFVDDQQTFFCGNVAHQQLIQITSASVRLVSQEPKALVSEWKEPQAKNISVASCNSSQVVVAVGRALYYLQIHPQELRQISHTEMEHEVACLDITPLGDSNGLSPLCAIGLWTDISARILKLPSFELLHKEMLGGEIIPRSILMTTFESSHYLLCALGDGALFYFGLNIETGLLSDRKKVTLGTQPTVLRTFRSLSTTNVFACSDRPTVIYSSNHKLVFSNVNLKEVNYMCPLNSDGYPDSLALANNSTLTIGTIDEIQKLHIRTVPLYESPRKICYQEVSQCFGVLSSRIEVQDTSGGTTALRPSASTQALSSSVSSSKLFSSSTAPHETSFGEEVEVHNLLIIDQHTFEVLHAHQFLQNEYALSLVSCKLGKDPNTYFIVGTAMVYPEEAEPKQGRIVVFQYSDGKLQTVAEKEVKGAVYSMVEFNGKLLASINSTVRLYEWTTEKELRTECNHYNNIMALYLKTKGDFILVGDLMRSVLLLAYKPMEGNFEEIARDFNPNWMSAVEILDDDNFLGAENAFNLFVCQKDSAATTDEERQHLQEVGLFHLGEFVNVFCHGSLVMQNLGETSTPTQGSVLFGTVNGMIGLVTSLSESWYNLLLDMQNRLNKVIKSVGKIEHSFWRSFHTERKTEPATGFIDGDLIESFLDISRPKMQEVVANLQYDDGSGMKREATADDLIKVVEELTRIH
Excerpt: A 70 μs delay was employed to reduce background fluorescence. The TR-FRET signal was obtained through calculating the ratio of 520 nm to 490 nm fluorescence, and Prism 9 (GraphPad) was used for further data analysis.

HEK293T cells = test: Drug sensitivity assay (CellTiter-Glo viability) with or without MLN4924 pretreatment; type: cell-based, human; conditions: Supplementary Table 2; for EC50: Homo sapiens, HEK-293T, HEK293T viability, 72 h, compound alone, read-out: Cellular assays EC50; for Toxicity rescue: MLN4924-mediated cytotoxicity rescue, 10 µM used where n.d.
Description: HEK293T–Cas9 cells were resuspended at 0.15 × 10^6 ml^−1 treated with DMSO or 100 nM MLN4924 and plated on 384-well plates. After 2 h, the indicated drugs were dispensed with a D300 digital dispenser (Tecan). After 3 days of drug exposure, cell viability was assessed using the CellTiter-Glo luminescent assay (Promega, G7572) on an CLARIOstar Plus, MARS 3.4 (BMG LabTech). Cell viabilities were calculated relative to DMSO controls.

[1] = tested on: cyclin K–eGFP degradation reporter; test: Cyclin K reporter stability analysis (dual-color cyclin K–eGFP reporter); type: cell-based, human; conditions: Supplementary Table 2; HEK293T cycK-eGFP reporter, 5 h; read-out: Cellular assays DC50
Description: HEK293T–Cas9 cells expressing the cyclin K–eGFP degradation reporter were resuspended at 1 × 10^6 ml^−1 and 50 µl of cell suspension was seeded in non-cell-culture-treated 384-well plates. Shortly after, cells were treated with drug or DMSO for 5 h. […] The fluorescent signal was quantified by flow cytometry (LSRFortessa flow cytometer, BD Biosciences). Using FlowJo (flow cytometry analysis software, BD Biosciences), the geometric mean of the eGFP and mCherry fluorescent signal for round and mCherry-positive cells was calculated. The ratio of eGFP to mCherry was normalized to the average of three DMSO-treated controls.

CDK12–cyclin K = CDK12–cyclin K (Homo sapiens, UniProt Q9NYV4); test: Lanthascreen kinase binding assay, CDK12; conditions: for Lanthascreen raw signal, sheet CDK12: series r1, duplicates
Sequence of CDK12–cyclin K (Q9NYV4 713-1052): as the sequence (Q9NYV4 713-1052 K965R) above, with R253K counted along it
Sequence of CDK12–cyclin K (O75909 1-267 partner limits assumed): as the sequence (O75909 1-267 partner) above
Description: (§1) Lanthascreen experiments were performed using commercially available reagents (Thermo Fisher) and according to the manufacturer’s instructions.

CDK9–cyclin T = molecular target: T2, CDK9–cyclin T (Homo sapiens, UniProt P50750); test: Lanthascreen kinase binding assay, CDK9; conditions: for Lanthascreen TR-FRET signal (raw ratio), sheet CDK9: first titration set (r1), duplicates
T2 construct: purchased Thermo Fisher
T2 sequence (P50750 whole entry): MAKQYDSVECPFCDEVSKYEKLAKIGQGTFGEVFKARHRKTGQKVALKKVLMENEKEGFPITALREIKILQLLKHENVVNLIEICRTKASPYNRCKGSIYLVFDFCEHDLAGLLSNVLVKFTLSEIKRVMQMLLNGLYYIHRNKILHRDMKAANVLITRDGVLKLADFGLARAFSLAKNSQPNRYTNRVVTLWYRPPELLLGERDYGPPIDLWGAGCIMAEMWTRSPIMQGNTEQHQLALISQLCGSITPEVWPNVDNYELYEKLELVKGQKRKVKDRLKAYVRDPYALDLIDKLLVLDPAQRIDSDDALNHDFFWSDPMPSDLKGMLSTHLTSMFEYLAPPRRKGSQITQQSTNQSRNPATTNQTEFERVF
T2 sequence (O60563 whole entry partner): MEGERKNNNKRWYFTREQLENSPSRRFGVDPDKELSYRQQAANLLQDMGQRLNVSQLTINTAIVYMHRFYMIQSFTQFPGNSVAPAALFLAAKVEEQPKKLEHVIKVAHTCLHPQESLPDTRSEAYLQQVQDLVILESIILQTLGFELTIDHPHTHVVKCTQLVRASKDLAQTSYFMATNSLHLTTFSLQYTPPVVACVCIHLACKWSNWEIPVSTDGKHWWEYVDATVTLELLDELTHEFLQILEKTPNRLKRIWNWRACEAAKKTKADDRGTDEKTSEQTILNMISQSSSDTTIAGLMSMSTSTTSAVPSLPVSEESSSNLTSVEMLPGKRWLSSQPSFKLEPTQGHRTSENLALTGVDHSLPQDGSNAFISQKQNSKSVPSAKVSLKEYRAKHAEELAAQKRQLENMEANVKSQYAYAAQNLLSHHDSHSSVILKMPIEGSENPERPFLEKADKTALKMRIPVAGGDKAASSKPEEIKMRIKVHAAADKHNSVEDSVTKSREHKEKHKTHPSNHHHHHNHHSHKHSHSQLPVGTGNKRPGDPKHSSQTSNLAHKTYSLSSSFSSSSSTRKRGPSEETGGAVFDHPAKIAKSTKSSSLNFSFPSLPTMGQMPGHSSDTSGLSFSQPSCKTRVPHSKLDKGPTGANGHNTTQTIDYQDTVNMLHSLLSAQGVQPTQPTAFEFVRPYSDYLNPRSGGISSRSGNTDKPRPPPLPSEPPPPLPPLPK
Description: as §1

CDK2–cyclin A = molecular target: T3, CDK2–cyclin A (Homo sapiens, UniProt P24941); test: Lanthascreen kinase binding assay, CDK2; conditions: for Lanthascreen signal, sheet CDK2: raw replicates, experiment r1-r11
T3 construct: purchased Thermo Fisher
Description: as §1

[2] = Supplementary Table 2, read-out: TR-FRET EC50 TR-FRET
[3] = in vitro complex formation, 50 nM CDK12–cyclin K, 100 nM DDB1, text and figures, read-out: TR-FRET EC50

## CC[C@H](CO)Nc1nc(Nc2ccc(-c3ccccn3)cc2)c2ncn(C(C)C)c2n1 [DRF053, reference compound]
CDK12–cyclin K and DDB1; [2]
  EC50: 704 nM
CDK12–cyclin K and DDB1; compound concentration 4.68 nM, raw replicate titration data
  TR-FRET signal at compound concentration 4.68 nM: 0.2134 and 0.2299 and 0.1361 and 0.1347
CDK12–cyclin K and DDB1; compound concentration 21.6 nM, raw replicate titration data
  TR-FRET signal at compound concentration 21.6 nM: 0.2243 and 0.2471 and 0.1497 and 0.153
CDK12–cyclin K and DDB1; compound concentration 36 nM, raw replicate titration data
  TR-FRET signal at compound concentration 36 nM: 0.2585 and 0.3171 and 0.1771 and 0.1787
CDK12–cyclin K and DDB1; compound concentration 79.2001 nM, raw replicate titration data
  TR-FRET signal at compound concentration 79.2001 nM: 0.3449 and 0.4117 and 0.2284 and 0.2341
CDK12–cyclin K and DDB1; compound concentration 158.4 nM, raw replicate titration data
  TR-FRET signal at compound concentration 158.4 nM: 0.4712 and 0.5868 and 0.3097 and 0.3219
CDK12–cyclin K and DDB1; compound concentration 309.6 nM, raw replicate titration data
  TR-FRET signal at compound concentration 309.6 nM: 0.6548 and 0.8142 and 0.4579 and 0.474
CDK12–cyclin K and DDB1; compound concentration 626.401 nM, raw replicate titration data
  TR-FRET signal at compound concentration 626.401 nM: 0.9256 and 1.1545 and 0.6903 and 0.7002
CDK12–cyclin K and DDB1; compound concentration 1252.8 nM, raw replicate titration data
  TR-FRET signal at compound concentration 1252.8 nM: 1.214 and 1.445 and 0.9334 and 0.9779
CDK12–cyclin K and DDB1; compound concentration 2448 nM, raw replicate titration data
  TR-FRET signal at compound concentration 2448 nM: 1.442 and 1.672 and 1.232 and 1.263
CDK12–cyclin K and DDB1; compound concentration 9936.01 nM, raw replicate titration data
  TR-FRET signal at compound concentration 9936.01 nM: 1.602 and 1.881 and 1.44 and 1.453
CDK12–cyclin K and DDB1; compound concentration 20016 nM, raw replicate titration data
  TR-FRET signal at compound concentration 20016 nM: 1.655 and 1.896 and 1.497 and 1.485
CDK12–cyclin K and DDB1; [3]
  EC50: 704 ± 108 nM
CDK12–cyclin K and DDB1; sheet MOESM7, read-out: log TR-FRET EC50 (converted)
  EC50: 704 nM
HEK293T cells
  EC50: 1310 nM
  Toxicity rescue: 387%
[1]
  DC50: > 10000 nM

## CC(C)n1cnc2c(NCc3ccc(-c4ccccn4)cc3)nc(N3CCCC[C@H]3CCO)nc21 [DS70]
CDK12–cyclin K; Lanthascreen across CDK2/9/12
  CDK inhibitory selectivity, result in words: more pronounced pan-CDK engagement than CR8
CDK12–cyclin K; Supplementary Table 2, read-out: Lanthascreen IC50 [nM] CDK12
  IC50: 1 nM
CDK12–cyclin K; compound 1.02544 nM
  Lanthascreen raw signal, sheet CDK12: 0.01164 and 0.009885
CDK12–cyclin K; compound 3.15521 nM
  Lanthascreen raw signal, sheet CDK12: 0.008674 and 0.009398
CDK12–cyclin K; compound 9.46563 nM
  Lanthascreen raw signal, sheet CDK12: 0.007398 and 0.008542
CDK12–cyclin K; compound 31.5521 nM
  Lanthascreen raw signal, sheet CDK12: 0.006709 and 0.008514
CDK12–cyclin K; compound 99.3891 nM
  Lanthascreen raw signal, sheet CDK12: 0.005942 and 0.005764
CDK12–cyclin K; compound 315.521 nM
  Lanthascreen raw signal, sheet CDK12: 0.005543 and 0.005183
CDK12–cyclin K; compound 3155.21 nM
  Lanthascreen raw signal, sheet CDK12: 0.004896 and 0.004614
CDK12–cyclin K; compound 10002 nM
  Lanthascreen raw signal, sheet CDK12: 0.00468 and 0.003424
CDK9–cyclin T; Supplementary Table 2, read-out: Lanthascreen IC50 [nM] CDK9
  IC50: 5 nM
CDK9–cyclin T; compound 1.02544 nM
  Lanthascreen TR-FRET signal (raw ratio), sheet CDK9: 0.01641 and 0.01302
CDK9–cyclin T; compound 3.15521 nM
  Lanthascreen TR-FRET signal (raw ratio), sheet CDK9: 0.01102 and 0.01312
CDK9–cyclin T; compound 9.46563 nM
  Lanthascreen TR-FRET signal (raw ratio), sheet CDK9: 0.008363 and 0.009049
CDK9–cyclin T; compound 31.5521 nM
  Lanthascreen TR-FRET signal (raw ratio), sheet CDK9: 0.005358 and 0.007058
CDK9–cyclin T; compound 99.3891 nM
  Lanthascreen TR-FRET signal (raw ratio), sheet CDK9: 0.003738 and 0.004042
CDK9–cyclin T; compound 315.521 nM
  Lanthascreen TR-FRET signal (raw ratio), sheet CDK9: 0.003575 and 0.004296
CDK9–cyclin T; compound 10002 nM
  Lanthascreen TR-FRET signal (raw ratio), sheet CDK9: 0.002963 and 0.00293
CDK12–cyclin K and DDB1; [2]
  EC50: 17.6 nM
CDK12–cyclin K and DDB1; raw replicate titration data
  TR-FRET signal at compound concentration 0.468 nM: 0.3438 and 0.3184 and 0.1924 and 0.2024
  TR-FRET signal at compound concentration 2.16 nM: 0.4192 and 0.3926 and 0.2807 and 0.3027
  TR-FRET signal at compound concentration 3.6 nM: 0.579 and 0.5213 and 0.4737 and 0.5178
  TR-FRET signal at compound concentration 7.92001 nM: 0.9688 and 0.8489 and 0.8819 and 0.9925
  TR-FRET signal at compound concentration 15.84 nM: 1.662 and 1.49 and 2.462 and 1.9374
  TR-FRET signal at compound concentration 30.96 nM: 3.334 and 2.673 and 3.406 and 3.32
  TR-FRET signal at compound concentration 62.6401 nM: 4.043 and 3.673 and 3.819 and 3.799
  TR-FRET signal at compound concentration 125.28 nM: 4.112 and 3.943 and 3.866 and 3.944
  TR-FRET signal at compound concentration 244.8 nM: 4.2103 and 4.005 and 3.909 and 3.827
  TR-FRET signal at compound concentration 993.601 nM: 4.121 and 4.04 and 3.857 and 3.873
  TR-FRET signal at compound concentration 2001.6 nM: 4.101 and 3.97 and 3.793 and 3.647
CDK12–cyclin K and DDB1; raw titration data
  TR-FRET signal at compound concentration 0.468 nM: 0.3438 and 0.3184 and 0.1924 and 0.2024
  TR-FRET signal at compound concentration 2.16 nM: 0.4192 and 0.3926 and 0.2807 and 0.3027
  TR-FRET signal at compound concentration 3.6 nM: 0.579 and 0.5213 and 0.4737 and 0.5178
  TR-FRET signal at compound concentration 7.92001 nM: 0.9688 and 0.8489 and 0.8819 and 0.9925
  TR-FRET signal at compound concentration 15.84 nM: 1.662 and 1.49 and 2.462 and 1.9374
  TR-FRET signal at compound concentration 30.96 nM: 3.334 and 2.673 and 3.406 and 3.32
  TR-FRET signal at compound concentration 62.6401 nM: 4.043 and 3.673 and 3.819 and 3.799
  TR-FRET signal at compound concentration 125.28 nM: 4.112 and 3.943 and 3.866 and 3.944
  TR-FRET signal at compound concentration 244.8 nM: 4.2103 and 4.005 and 3.909 and 3.827
  TR-FRET signal at compound concentration 993.601 nM: 4.121 and 4.04 and 3.857 and 3.873
  TR-FRET signal at compound concentration 2001.6 nM: 4.101 and 3.97 and 3.793 and 3.647
CDK12–cyclin K and DDB1; [3]
  EC50: 18 ± 1 nM
CDK2–cyclin A; Compound 1.02544 nM
  Lanthascreen signal, sheet CDK2: 0.009698 and 0.009238
CDK2–cyclin A; Compound 3.15521 nM
  Lanthascreen signal, sheet CDK2: 0.009437 and 0.009539
CDK2–cyclin A; Compound 9.46563 nM
  Lanthascreen signal, sheet CDK2: 0.008356 and 0.007045
CDK2–cyclin A; Compound 31.5521 nM
  Lanthascreen signal, sheet CDK2: 0.006783 and 0.006389
CDK2–cyclin A; Compound 99.3891 nM
  Lanthascreen signal, sheet CDK2: 0.003942 and 0.005883
CDK2–cyclin A; Compound 315.521 nM
  Lanthascreen signal, sheet CDK2: 0.002917 and 0.004435
CDK2–cyclin A; Compound 3155.21 nM
  Lanthascreen signal, sheet CDK2: 0.002797 and 0.003541
CDK2–cyclin A; Compound 10002 nM
  Lanthascreen signal, sheet CDK2: 0.002382 and 0.002785
CDK2–cyclin A; Supplementary Table 2, read-out: Lanthascreen IC50 [nM] CDK2
  IC50: 31 nM
HEK293T cells
  EC50: 265 nM
  Toxicity rescue: 30%
